These are literature values, as cited in patent US20260345483A1, “Pharmaceutical Formulation” (Klaria Pharma Holding AB, priority 2018, published 2026).

Series [1] deals with porcine buccal epithelium. The following applies: enhancer concentration, ref [6].
For series [2] the following is noted: aqueous solution, ref [4].
For series [3] the following is noted: subcutaneous injection compared with intramuscular injection, ref [3].

As to `CCCCCCCC/C=C\CCCCCCCC(=O)O` [Oleic acid, oleic acid], in series [1], the “enhanced permeability with porcine buccal epithelium” value is on record as 1-10%.

Turning to `CNCC(O)c1ccc(O)c(O)c1` (stereo not shown) [adrenaline], in series [2], the “pH of acceptable adrenaline stability” value is less than 5.5 and the “pH of optimal adrenaline stability” value is on record as 3-4. In series [3], the “time of peak plasma concentration” value is recorded as “significantly delayed”.
